Assay results reported in PubChem BioAssay (NCI).
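Each compound was tested at five concentrations against cells in 96-well plates for 48 hours. TGI: concentration producing complete growth inhibition.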

Tests used:
Assay in all cases: DTP human tumour cell line panel, 48 h
[1] = tested on: MDA-MB-231 breast
[2] = tested on: IGROV1 ovarian
[3] = tested on: OVCAR-3 ovarian
[4] = tested on: A498 renal
[5] = tested on: MALME-3M melanoma
[6] = tested on: A549 NSCLC
[7] = tested on: MDA-N
[8] = tested on: OVCAR-4 ovarian
[9] = tested on: OVCAR-5 ovarian
[10] = tested on: T-47D breast
[11] = tested on: 786-0 renal

Compound | TGI [1] [µM] | TGI [2] [µM] | TGI [3] [µM] | TGI [4] [µM] | TGI [5] [µM] | TGI [6] [µM] | TGI [7] [µM] | TGI [8] [µM] | TGI [9] [µM] | TGI [10] [µM] | TGI [11] [µM]
C#CCNC(Cc1cnc[nH]1)C(=O)O (centres undefined) | > 100 | > 100 | > 100 | > 100 | > 100 | > 100 | > 100 | > 100 | > 100 | > 100 | > 100
C=CCC(CNC(=O)OCc1ccccc1)O[Si](C)(C)C(C)(C)C (centres undefined) | 37 | 84.3 | > 100 | > 100 | – | > 100 | > 100 | > 100 | 71.6 | > 100 | 98.7
CC(=O)O[C@H]1C#C/C=C\C#CC[C@@H]2C(=O)N(C(=O)OC(C)(C)C)[C@@H]12 | > 100 | > 100 | 98.3 | > 100 | > 100 | > 100 | > 100 | > 100 | > 100 | 88.6 | 51.7
CC(CCC(=O)O)[C@H]1CCC2[C@H]3C(CC[C@@]21C)[C@@]1(C)CCC(O)C[C@H]1C[C@@H]3O (some centres undefined) | > 100 | > 100 | – | > 100 | > 100 | > 100 | > 100 | > 100 | > 100 | > 100 | > 100
CCCn1c(C23CC4CC(CC(C4)C2)C3)nc2ccc(Cl)cc2c1=O | > 100 | > 100 | > 100 | 66.1 | > 100 | > 100 | > 100 | > 100 | > 100 | > 100 | > 100
CN(CCc1ccc(Cl)c(Cl)c1)[C@H]1CCCC[C@H]1N1CCCC1 | > 100 | > 100 | > 100 | > 100 | > 100 | > 100 | > 100 | > 100 | > 100 | > 100 | > 100
CNC(=O)CCC(NC(C)=O)C(=O)NC(Cc1ccc(NC(=O)CCCCC(C)=O)cc1)C(=O)NC(CCC(=O)NC)C(=O)NC (centres undefined) | > 100 | > 100 | > 100 | > 100 | > 100 | > 100 | > 100 | > 100 | > 100 | > 100 | > 100
CN(C)CCOC(=O)COc1ccc(Cl)cc1 | > 100 | > 100 | > 100 | > 100 | > 100 | > 100 | > 100 | > 100 | > 100 | > 100 | > 100
Clc1nc(-[n+]2ccc(-c3ccncc3)cc2)nc(Nc2ccccc2)c1Cl | > 100 | > 100 | > 100 | > 100 | > 100 | > 100 | > 100 | > 100 | > 100 | > 100 | > 100
CC(NC(=O)/C(=C/c1ccccc1O)NC(=O)c1ccccc1)C(=O)O (centres undefined) | 60 | > 100 | – | > 100 | > 100 | > 100 | > 100 | > 100 | > 100 | > 100 | 68.1
CCc1nnc(-n2c(C)nc3cc(Cl)ccc3c2=O)s1 | > 100 | > 100 | 43 | > 100 | 93.1 | > 100 | 49.1 | > 100 | > 100 | > 100 | 81.6
O=C1/C(=C/c2ccccc2)CCc2ccc(Cl)nc21 | 40.6 | 17.7 | 46.9 | 34.6 | 27.2 | 38.4 | 18.5 | > 83.5 | 33.4 | 18.6 | 21.8
O=C(N/N=C\c1cccc2ccccc12)Nc1ccc([N+](=O)[O-])cc1 | > 100 | > 100 | 38.3 | > 100 | > 69.4 | > 100 | > 89 | > 71.6 | > 71 | > 41.4 | > 37.8
C/C(O)=C(\C=N\C(N)=S)C(=O)Nc1ccccc1C | > 100 | > 100 | > 100 | > 100 | – | > 100 | > 100 | > 100 | > 100 | > 100 | > 100
CC(=O)N(CN1C(=O)CCC1C(=O)O)c1ccccc1 (centres undefined) | > 100 | > 100 | > 100 | > 100 | > 100 | > 100 | > 100 | > 100 | > 100 | > 100 | > 100
Cc1cc2ccccc2c[n+]1CC(O)C[n+]1cc2ccccc2cc1C | > 100 | > 100 | > 100 | > 100 | > 100 | > 100 | > 100 | > 100 | > 100 | > 100 | > 100
CC(C)CCC[C@@H](C)[C@H]1CC[C@H]2[C@@H]3CC=C4C[C@@H](OC(=O)c5cccc6c(=O)c7ccccc7[nH]c56)CC[C@]4(C)[C@H]3CC[C@]12C | > 75 | > 75 | > 75 | > 75 | > 75 | > 75 | > 75 | > 75 | > 75 | > 75 | > 75
COC(=O)C(/C(=N/NC(=O)c1ccncc1)C(=O)Nc1ccccc1OC)c1nc2ccc(Cl)cc2[nH]c1=O (centres undefined) | > 100 | > 100 | > 100 | > 100 | > 100 | > 100 | > 100 | > 100 | > 100 | > 100 | > 100
N#CC1=C(N)C(C#N)(C#N)C(c2ccc(F)cc2)C=C1C1CC1 (centres undefined) | 33.1 | 25.5 | 18.1 | 23.5 | 26.8 | 41.7 | 6.67 | – | 34.5 | 29 | 21.9
Cc1csc2c1C(=O)c1ccsc1C2=O | 11 | 11.8 | 5.44 | 32.5 | 1.07 | 3.55 | 0.889 | 3.34 | 3.46 | 4.99 | 16

Compound | TGI [1] [µM] | TGI [2] [µM] | TGI [3] [µM] | TGI [4] [µM] | TGI [5] [µM] | TGI [6] [µM] | TGI [7] [µM] | TGI [8] [µM] | TGI [9] [µM] | TGI [10] [µM] | TGI [11] [µM]
COc1ccc(C(O)c2ccc3c(c2)OCO3)cc1 (centres undefined) | > 100 | > 100 | > 100 | > 100 | > 100 | > 100 | > 100 | > 100 | > 100 | > 100 | > 100
CC1=C(C(=O)OCCc2ccc([N+](=O)[O-])cc2)C(c2ccccc2[N+](=O)[O-])C(C(=O)OC(C)C)=C(C)N1 (centres undefined) | > 100 | > 100 | > 100 | – | > 100 | > 100 | > 100 | > 100 | > 100 | > 100 | 17.9
COC(=O)[C@H](C)N1C(=O)N[C@@H](C(C)C)C1=O | > 100 | > 100 | > 100 | – | > 100 | > 100 | > 100 | > 100 | > 100 | > 100 | > 100
CC(=O)/C=C/C=C(\C)CC/C=C(\C)CC(C)C | > 100 | > 100 | 78.7 | 83.3 | – | > 100 | > 100 | > 100 | > 100 | 46 | 97.3
O=C(O)/C=C(/CC(=O)O)C(=O)O | 48 | 42.2 | 34.5 | 32.7 | 37.3 | 43.2 | 54.6 | 65.3 | > 100 | 48.1 | 33.3
O=C(C1=C(C(=O)c2ccccc2)SC2(S1)C(C(=O)c1ccccc1)=C(C(=O)c1ccccc1)Sc1c2ssc1=O)c1ccccc1 | > 100 | > 100 | > 100 | 31.2 | > 100 | > 100 | > 100 | > 100 | 59.2 | > 100 | > 100
Cc1nnc2cc(C(=O)O)c3ccccc3n2c1=O | > 10 | > 10 | > 10 | > 10 | > 10 | > 10 | > 10 | > 10 | > 10 | > 10 | > 10
CN=C(Nn1cnnc1)OC | > 100 | > 100 | > 100 | > 100 | > 100 | > 100 | > 100 | > 100 | > 100 | > 100 | > 100
O=C1NC(=S)N/C1=C/c1ccccc1O | > 100 | > 100 | > 100 | – | > 100 | > 100 | > 100 | > 100 | > 100 | > 100 | > 100
Cc1cc(S(=O)(=O)Nc2nnc3c(C(F)(F)F)cc(Cl)cn23)c(S)cc1Cl | > 100 | > 100 | > 100 | > 100 | > 100 | > 100 | > 100 | > 100 | > 100 | > 100 | > 100
Cc1ccc(C(=O)N(C(C)C)C(C)C)cc1N=NN(C)C | > 100 | > 100 | > 100 | – | > 100 | > 100 | > 100 | > 100 | > 100 | > 100 | > 100
N#Cc1c(Nc2ccc(F)cc2)[n+]([O-])c2ccc(Cl)cc2[n+]1[O-] | 16.7 | 4.02 | 13.3 | 8.63 | > 100 | 35.9 | > 100 | 5.71 | – | 38.9 | 27.5
S=C(N/N=C\C=N/NC(=S)N1CCCCCC1)N1CCCCCC1 | > 100 | > 100 | > 100 | > 100 | > 93.7 | > 100 | > 100 | – | > 100 | 21.8 | > 100
CCOC(=O)c1ccc(C(=O)C(C(C)=O)C(=O)OC(C)(C)C)n1C (centres undefined) | > 100 | > 100 | > 100 | > 100 | > 100 | > 100 | > 100 | > 100 | > 100 | > 100 | > 100
CCOC(=O)c1nc2c3c(ncn2n1)Oc1c(c(-c2ccccc2)nn1-c1ccccc1)C3c1ccc(Cl)cc1 (centres undefined) | > 100 | – | > 100 | > 100 | > 100 | > 100 | > 100 | > 100 | > 100 | > 100 | > 100
O=C(CC(O)(C(F)(F)F)C(F)(F)F)C(CCCl)C(O)(C(F)(F)F)C(F)(F)F (centres undefined) | > 100 | > 100 | 65.3 | 64.8 | 76.1 | > 100 | > 100 | > 100 | > 100 | 78 | > 100
OCC1OC(n2cnc3cccnc32)CC1O (centres undefined) | > 100 | > 100 | > 100 | > 100 | – | > 100 | > 100 | > 100 | > 100 | > 100 | > 100
CCCCC[C@@H]1OCO[C@@]2(C)/C=C(C)/C=C/C(=O)O[C@H]([C@@H](C)[C@@H](O)[C@H](C)[C@@]3(O)C[C@@H](O[C@H]4C[C@@H](O)[C@H](O)[C@@H](C)O4)[C@H](C)[C@@H](C)O3)[C@@H](OC)/C=C/C=C(\C)C[C@@H]1[C@@H]2O (stereo in doubt) | 1.59 | 8.22 | 2.46 | 0.0829 | 0.308 | 0.733 | 0.203 | 8.38 | 0.215 | 9.09 | 0.676
CC1(C)O[C@@H](CO)[C@H]([C@@]23OC[C@H]4OC(C)(C)OC4[C@@H]2OC(C)(C)O3)O1 (some centres undefined) | > 100 | > 100 | > 100 | – | > 100 | > 100 | > 100 | > 100 | > 100 | > 100 | > 100
